# Measured values reported in article PMC11940214, “The Antimicrobial Peptide D-CONGA-Q7 Eradicates Drug-Resistant E. coli by Disrupting Bacterial Cell Membranes” (Biology, 2025).
# Where a SMILES comes first, the peptide text is derived from it. [ ]: non-standard residue; d: D form.
# Key:
# [1] = test system: erythrocyte; conditions: cited from earlier work
# Excerpt: D-CONGA was originally screened from a library of 28,000 peptides using high-throughput synthesis principles and host cell compatibility. […] This study explored the antimicrobial mechanis ...
# [2] = test system: E. coli LN175 (mcr-1,NDM); assay type: cell-based, Escherichia coli
# Procedure: (§1) The bacterial strains used in this study, including LN175, J27ab-2, K88, AD21R, and 21f54mr-1, were E. coli obtained from the Hunan Veterinary Engineering Research Center (Changsha, Hunan Province). Except for K88, all the strains were multidrug-resistant and carried multiple resistance genes, while K88 was a diarrhea-causing strain containing the ETEC gene.
# (§2) The bacterial concentration was adjusted to 1 × 10^5 CFU/mL using a turbidimeter. Then, 100 μL of Mueller–Hinton Broth (MHB) broth was added to wells 1–11 of a 96-well plate, while 200 μL was added to well 12. Then, 100 μL of the drug was added to wells 1–11, which was followed by 100 μL of the bacterial suspension. Results were observed after incubation at 37 °C for 16–24 h.
# [3] = in vitro; assay type: cell-based, porcine; conditions: pig
# Procedure: Porcine small intestinal epithelial cells (IPEC-J2) were cultured in DMEM-F12 medium supplemented with 10% fetal bovine serum (TransGen Biotech, Beijing, China) and 1% penicillin–streptomycin (Beyotime Biotechnology, Shanghai, China). The cells were maintained in a humidified incubator at 37 °C with 5% CO2. Cells were passaged using 0.25% trypsin solution containing ethylenediaminetetraacetic acid (EDTA). Cells were seeded into 96-well plates at a density of 1 × 10⁴ cells per well. After 48 h, they were treated with varying concentrations of D-CONGA-Q7 and incubated with CCK-8 (Beyotime Biotechnology, Shanghai, China) for 1 h. The assay was measured using a […].
# [4] = test system: E. coli strain LN175, K88, J27ab-2; assay: Thermal and acid-base stability, read out as change in MIC; assay type: physicochemical, Escherichia coli; conditions: 1.024 mg/mL solution, then adjusted back
# Procedure: For thermal stability, the D-CONGA-Q7 was prepared as a 1.024 mg/mL solution and heated in a water bath at room temperature, 60, 65, 70, 75, 80, 90 and 100 °C for 1 h, and autoclaved at 121 °C for 15 min and then cooled to room temperature, respectively. Acid–base stability, 1.024 mg/mL of D-CONGA-Q7 solution was used to adjust its pH to 2–12 using HCl and NaOH, and the pH of each tube was adjusted back to the initial tube pH after 1 h. The adjustment of solution pH = 3.89 (pH = 3.89 is the pH of D-CONGA-Q7 itself when dissolved) included the above use of the untreated samples as a control.
# The antimicrobial activity of D-CONGA-Q7 was evaluated by assessing changes in its MIC against strain LN175, K88, J27ab-2.
# [5] = test system: multidrug-resistant E. coli strains; assay type: cell-based, Escherichia coli
# Procedure: as §1, §2
structure (smiles),measurement,setting,value
CC(C)C[C@@H](NC(=O)[C@@H](CCC(N)=O)NC(=O)[C@@H](CCCNC(=N)N)NC(=O)[C@@H](CCCNC(=N)N)NC(=O)[C@@H](C)NC(=O)[C@@H](Cc1c[nH]c2ccccc12)NC(=O)[C@@H](CCCNC(=N)N)NC(=O)[C@H](N)CCCNC(=N)N)C(=O)N[C@H](C)C(=O)N[C@H](Cc1ccccc1)C(=O)N[C@H](C)C(=O)N[C@H](Cc1ccccc1)C(=O)N[C@H](CCCNC(=N)N)C(=O)N[C@H](CCCNC(=N)N)C(N)=O [D-CONGA-Q7] (H-[dR][dR][dW][dA][dR][dR][dQ][dL][dA][dF][dA][dF][dR][dR]-NH2),erythrocyte hemolytic activity,[1],minimal erythrocyte hemolytic activity
same,MIC,[2],4 µg/mL
same,IC50,[3],188 µg/mL
same,antimicrobial activity after exposure to pH 12 (acid-base stability),"[4]; pH 12, 1 h, read-out MIC",reduction in activity
same,antimicrobial activity after exposure to pH 2 to 11 (acid-base stability),"[4]; pH between 2 and 11 with HCl/NaOH, 1 h, read-out MIC against LN175, K88, J27ab-2",retained its antimicrobial activity
same,MIC values for all strains tested,[5],less than or equal to 4 μg/mL
